{
  "source": "paper PMC12064818",
  "about": "“A general assay platform to study protein pharmacology using ligand-dependent structural dynamics” (Nature Communications, 2025)",
  "key": {"PKA-N-HiBiT": {"target": "PKA-N-HiBiT (Homo sapiens, UniProt P17612)", "assay": "SDR assay, PKA-N-HiBiT"}, "[1]": {"target": "FLuc-N-HiBiT (firefly luciferase) (Photinus pyralis, UniProt P08659, form not given/L550V)", "sequence (P08659 2-550 L550V, form open)": "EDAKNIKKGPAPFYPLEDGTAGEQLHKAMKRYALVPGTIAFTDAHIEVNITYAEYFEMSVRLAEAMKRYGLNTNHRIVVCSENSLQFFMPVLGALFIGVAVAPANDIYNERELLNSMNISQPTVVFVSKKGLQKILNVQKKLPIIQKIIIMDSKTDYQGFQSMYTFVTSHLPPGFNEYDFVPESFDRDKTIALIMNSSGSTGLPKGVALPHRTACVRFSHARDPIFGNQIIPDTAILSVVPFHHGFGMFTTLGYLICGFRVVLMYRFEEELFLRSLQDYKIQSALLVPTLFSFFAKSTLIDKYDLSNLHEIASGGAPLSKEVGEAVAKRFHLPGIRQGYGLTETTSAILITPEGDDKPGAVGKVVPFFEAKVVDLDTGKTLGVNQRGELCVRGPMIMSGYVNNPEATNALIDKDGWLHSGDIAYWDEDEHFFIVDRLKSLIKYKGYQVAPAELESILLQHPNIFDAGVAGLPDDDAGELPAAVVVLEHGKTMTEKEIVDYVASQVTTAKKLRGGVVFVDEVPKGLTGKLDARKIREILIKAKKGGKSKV", "assay": "SDR assay, FLuc-N-HiBiT", "conditions": "for % Activity (max response, + ATP) / % Activity (max response, - ATP) / % Activity (max response): SDR; for % Activity (max response, + ATP) / % Activity (max response, - ATP) / pSDR50 (clade A'): substituted indoline (clade A')"}, "FLuc-C-HiBiT": {"target": "T1, FLuc-C-HiBiT (Photinus pyralis, UniProt P08659)", "T1 construct": "firefly luciferase with C-terminal HiBiT tag, E. coli expressed", "T1 sequence (P08659 whole entry, looked up)": "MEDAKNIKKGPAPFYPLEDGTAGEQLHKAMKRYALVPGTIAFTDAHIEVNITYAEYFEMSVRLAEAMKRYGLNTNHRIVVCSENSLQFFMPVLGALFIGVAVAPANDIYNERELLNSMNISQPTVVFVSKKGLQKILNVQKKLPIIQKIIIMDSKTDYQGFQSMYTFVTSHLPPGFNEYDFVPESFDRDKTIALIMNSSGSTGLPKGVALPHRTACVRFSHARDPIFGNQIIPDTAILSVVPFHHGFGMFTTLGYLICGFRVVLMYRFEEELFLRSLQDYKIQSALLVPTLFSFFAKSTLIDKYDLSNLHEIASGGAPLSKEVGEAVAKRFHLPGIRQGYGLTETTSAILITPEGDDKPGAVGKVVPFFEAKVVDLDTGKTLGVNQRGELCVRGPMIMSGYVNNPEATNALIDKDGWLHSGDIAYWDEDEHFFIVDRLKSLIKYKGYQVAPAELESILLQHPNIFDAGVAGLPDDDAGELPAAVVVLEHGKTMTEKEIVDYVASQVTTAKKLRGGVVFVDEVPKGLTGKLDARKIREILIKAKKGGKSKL", "assay": "biochemical", "conditions": "enzyme activity, 10 uM ATP; read-out: IC50 or SDR50 (mM) / FLuc E"}, "[2]": {"target": "T2, ABL1-N-HiBiT kinase domain (Homo sapiens, UniProt P00519)", "T2 sequence (P00519 233-500)": "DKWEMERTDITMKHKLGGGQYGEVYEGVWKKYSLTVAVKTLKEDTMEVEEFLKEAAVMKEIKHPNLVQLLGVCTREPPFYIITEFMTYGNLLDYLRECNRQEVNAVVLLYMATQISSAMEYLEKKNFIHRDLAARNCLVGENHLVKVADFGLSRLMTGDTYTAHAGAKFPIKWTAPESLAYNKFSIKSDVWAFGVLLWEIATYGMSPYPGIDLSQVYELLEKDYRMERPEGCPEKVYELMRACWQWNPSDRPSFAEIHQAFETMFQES", "assay": "SDR assay, ABL1-N-HiBiT", "conditions": "ABL1, SDR; heatmap data, 128 kinase inhibitors"}, "[3]": {"conditions": "ATP-independent imidazo[2,1-b]thiazole (clade O) series"}, "[4]": {"conditions": "ATP-independent pyrazolo pyrimidine (clade P)"}},
  "data": [
    {"molecule": "CO[C@H]1/C=C/O[C@@]2(C)Oc3c(C)c(O)c4c(O)c(c(/C=N/N5CCN(C6CCCC6)CC5)c(O)c4c3C2=O)NC(=O)/C(C)=C\\C=C\\[C@H](C)[C@H](O)[C@@H](C)[C@@H](O)[C@@H](C)[C@H](OC(C)=O)[C@@H]1C", "note": "[Rifapentin]", "values": [
      {"measurement": "EC50", "setting": "PKA-N-HiBiT", "value": 16200, "unit": "nM"}
    ]},
    {"molecule": "COc1ccc(NC(=O)N2CCc3c(C(=O)NCCCN4CCCC4=O)cccc32)cc1", "note": "[NCGC00430130-01]", "values": [
      {"measurement": "% Activity (max response, + ATP)", "setting": "[1]; + ATP", "value": 129.70, "unit": "%"},
      {"measurement": "% Activity (max response, - ATP)", "setting": "[1]; - ATP", "value": 57.00, "unit": "%"},
      {"measurement": "pSDR50 (clade A')", "setting": "[1]; + ATP", "value": 6.47},
      {"measurement": "pSDR50 (clade A')", "setting": "[1]; - ATP", "value": 4.44},
      {"measurement": "IC50", "setting": "FLuc-C-HiBiT", "value": 0.000248, "unit": "mM"}
    ]},
    {"molecule": "COc1ccc(NC(=O)N2CCc3c(C(=O)NCCN4CCCCCC4)cccc32)cc1", "note": "[NCGC00430136-01]", "values": [
      {"measurement": "% Activity (max response, + ATP)", "setting": "[1]; + ATP", "value": 125.00, "unit": "%"},
      {"measurement": "% Activity (max response, - ATP)", "setting": "[1]; - ATP", "value": 26.27, "unit": "%"},
      {"measurement": "pSDR50 (clade A')", "setting": "[1]; + ATP", "value": 6.10},
      {"measurement": "pSDR50 (clade A')", "setting": "[1]; - ATP", "value": 3.93},
      {"measurement": "IC50", "setting": "FLuc-C-HiBiT", "value": 0.000556, "unit": "mM"}
    ]},
    {"molecule": "CCC(=O)N1CCc2c(C(=O)O)cccc21", "note": "[NCGC00432605-01]", "values": [
      {"measurement": "% Activity (max response, + ATP)", "setting": "[1]; + ATP", "value": 19.35, "unit": "%"},
      {"measurement": "% Activity (max response, - ATP)", "setting": "[1]; - ATP", "value": 9.26, "unit": "%"},
      {"measurement": "IC50", "setting": "FLuc-C-HiBiT", "value": "> 0.03", "unit": "mM"}
    ]},
    {"molecule": "Oc1ccc(-c2ccc(-c3cc(Nc4cccc(CNC5CC5)c4)n[nH]3)cc2)c(O)c1", "note": "[TCS 2312]", "values": [
      {"measurement": "EC50", "setting": "PKA-N-HiBiT", "value": 17400, "unit": "nM"}
    ]},
    {"molecule": "O=C(NCCc1cccs1)c1cccc2c1CCN2C(=O)Nc1ccc(F)cc1", "note": "[NCGC00430196-01]", "values": [
      {"measurement": "% Activity (max response, + ATP)", "setting": "[1]; + ATP", "value": 108.30, "unit": "%"},
      {"measurement": "% Activity (max response, - ATP)", "setting": "[1]; - ATP", "value": 19.81, "unit": "%"},
      {"measurement": "pSDR50 (clade A')", "setting": "[1]; + ATP", "value": 5.86},
      {"measurement": "IC50", "setting": "FLuc-C-HiBiT", "value": 0.000785, "unit": "mM"}
    ]},
    {"molecule": "Fc1ccccc1Cc1cn2cc(-c3ccc(Cl)cc3)nc2s1", "note": "[Compound 6]", "values": [
      {"measurement": "pSDR50 (clade O)", "setting": "[1]; [3]", "value": 5.50},
      {"measurement": "% Activity (max response)", "setting": "[1]; [3]", "value": 29.23, "unit": "%"}
    ]},
    {"molecule": "Cc1ccc(NC(=O)N2CCN(c3nc(N)nc4sc(-c5cccnc5)nc34)CC2)cc1", "note": "[PI4KIII beta I 3]", "values": [
      {"measurement": "ABL1 SDR pSDR50", "setting": "[2]", "value": 4.83}
    ]},
    {"molecule": "c1ccc(-n2ncc3c(N4CCCCC4)ncnc32)cc1", "note": "[Compound 373]", "values": [
      {"measurement": "pSDR50 (clade P)", "setting": "[1]; [4]", "value": 5.48},
      {"measurement": "% Activity (max response)", "setting": "[1]; [4]", "value": 80.68, "unit": "%"}
    ]},
    {"molecule": "Cc1ccccc1-n1c(C(C)Nc2nc(N)nc3nc[nH]c23)nc2cccc(C)c2c1=O.Cl", "note": "(centres unmarked) [CAL-130 HCl]", "values": [
      {"measurement": "ABL1 SDR pSDR50", "setting": "[2]", "value": 5.40}
    ]},
    {"molecule": "Cc1ccc(Cc2cn3cc(-c4ccccc4)nc3s2)cc1", "note": "[Compound 98]", "values": [
      {"measurement": "pSDR50 (clade O)", "setting": "[1]; [3]", "value": 5.78},
      {"measurement": "% Activity (max response)", "setting": "[1]; [3]", "value": 56.11, "unit": "%"}
    ]},
    {"molecule": "Fc1ccc(-c2cn3cc(Cc4ccccc4)sc3n2)cc1", "note": "[Compound 10]", "values": [
      {"measurement": "pSDR50 (clade O)", "setting": "[1]; [3]", "value": 5.73},
      {"measurement": "% Activity (max response)", "setting": "[1]; [3]", "value": 39.11, "unit": "%"}
    ]}
  ]
}
